Tests used:
[1] = test system: dog; settings: Subchronic oral toxicity in nonrodent, beagle, Feed, dose end: 6 month, group: systemic, systemic / clinical chemistry / albumin-globulin ratio / albumin-globulin ratio + systemic / organ weight / liver / absolute + systemic / …
[2] = test system: rat; settings: Carcinogenicity; fischer; Oral; Feed; dose end: 24 month; group: systemic; systemic / clinical chemistry / [other] / [other] + systemic / in life observation / body weight / body weight + systemic / in life …
[3] = test system: rat; settings: Sub-acute repeat dose toxicity, fischer, Oral, Feed, dose end: 28 day, group: systemic
[4] = test system: rat; settings: Multigenerational reproductive toxicity study, sprague dawley, Oral, Gavage/Intubation, dose end: 1 generation
[5] = test system: rat; settings: Subchronic oral toxicity in rodents, fischer, Feed, dose end: 13 week, group: systemic
[6] = test system: mouse; settings: Prenatal developmental toxicity study; other; Oral; Gavage/Intubation; dose end: 18 GD; group: maternal; reproductive / reproductive performance / aborted / aborted + reproductive / reproductive performance / estrous cycle / corpora lutea
[7] = test system: rat; settings: Subchronic oral toxicity in rodents, Diet, dose end: 90 day
[8] = test system: rat; settings: Combined chronic toxicity/carcinogenicity, sprague dawley, Oral, Feed, dose end: 24 month, group: systemic
[9] = test system: dog; settings: Chronic toxicity; beagle; Oral; Feed; dose end: 12 month; group: cholinesterase; cholinesterase / cholinesterase / cholinesterase / erythrocyte cholinesterase (che) + cholinesterase / cholinesterase / cholinesterase / …
[10] = test system: dog; settings: Subchronic oral toxicity in nonrodent, beagle, Capsule, dose end: 6 month
[11] = test system: rat; settings: Chronic toxicity, Oral, Feed, dose end: 26 month, group: systemic
[12] = test system: rat; settings: Combined chronic toxicity/carcinogenicity, wistar, Oral, Feed, dose end: 26 month
[13] = test system: rat; settings: Developmental neurotoxicity study; long evans; Injection; Subcutaneous; dose end: 30 PND; group: cannot be grouped; cholinesterase / cholinesterase / cholinesterase / cholinesterase (che) + systemic / in life observation / body weight / offspring (pup) …
[14] = test system: rat; settings: Carcinogenicity, fischer, Oral, Gavage/Intubation, dose end: 103 week, group: systemic
[15] = test system: mouse; settings: Carcinogenicity; b6c3f1; Oral; Gavage/Intubation; dose end: 104 week; group: systemic; systemic / in life observation / body weight / body weight + systemic / pathology microscopic / stomach / cyst + systemic / pathology …
[16] = test system: mouse; settings: Subchronic oral toxicity in rodents, b6c3f1, Gavage/Intubation, dose end: 13 week, group: systemic, systemic / pathology microscopic / stomach / cytoplasmic alteration + systemic / pathology microscopic / stomach / hyperkeratosis + systemic…
[17] = test system: rat; settings: Subchronic oral toxicity in rodents, fischer, Gavage/Intubation, dose end: 13 week, group: systemic
[18] = systemic / in life observation / food consumption / food consumption + systemic / pathology microscopic / stomach / hyperkeratosis + …
[19] = systemic / pathology microscopic / stomach / papilloma + systemic / in life observation / body weight / body weight + systemic / in life …
[20] = group: offspring, developmental / developmental landmark / vaginal opening / vaginal opening + systemic / clinical chemistry / cholesterol / cholesterol + …
[21] = group: offspring, systemic / organ weight / spleen / absolute
[22] = group: parental, systemic / organ weight / adrenal gland / absolute + systemic / organ weight / liver / absolute + systemic / organ weight / liver / relative…
[23] = group: parental, systemic / pathology gross / sperm measure / sperm morphology
[24] = group: reproductive, reproductive / reproductive performance / mating / mating + reproductive / reproductive performance / estrous cycle / length
[25] = systemic / in life observation / body weight / body weight gain + systemic / pathology gross / stomach / thickened + systemic / pathology …
[26] = group: cholinesterase, cholinesterase / cholinesterase / cholinesterase / erythrocyte cholinesterase (che) + cholinesterase / cholinesterase / cholinesterase / …
[27] = group: systemic, systemic / in life observation / body weight / body weight gain + systemic / in life observation / mortality / mortality
[28] = systemic / pathology microscopic / nerve / [other] + systemic / pathology microscopic / nerve / proliferation
[29] = group: cholinesterase, cholinesterase / cholinesterase / cholinesterase / plasma cholinesterase (che)
[30] = group: systemic, systemic / clinical chemistry / [other] / [other]
[31] = systemic / pathology microscopic / eye / [other]
[32] = systemic / pathology microscopic / eye / [other] + systemic / pathology microscopic / eye / atrophy + systemic / pathology microscopic / eye…
[33] = group: systemic, systemic / in life observation / body weight / body weight + systemic / in life observation / clinical signs / [other] + systemic / in life …
[34] = systemic / in life observation / clinical signs / defecation (diarrhea) + systemic / in life observation / clinical signs / urination
[35] = systemic / in life observation / clinical signs / defecation (diarrhea) + systemic / in life observation / clinical signs / urination + …
[36] = systemic / in life observation / body weight / body weight + systemic / in life observation / clinical signs / defecation (diarrhea) + …

COc1ccc(O)c(C(C)(C)C)c1 [Butylated hydroxyanisole]
LEL [1]: 54 mg/kg/day | LOAEL [1]: > 219 mg/kg/day | NEL [1]: < 54 mg/kg/day | NOAEL [1]: ≥ 219 mg/kg/day | LEL [2]: 1000 mg/kg/day | LOAEL [2]: > 1000 mg/kg/day | NEL [2]: < 1000 mg/kg/day | NOAEL [2]: ≥ 1000 mg/kg/day | LEL [3, 18]: 350 mg/kg/day | NEL [3, 18]: < 350 mg/kg/day | LOAEL [3, 19]: > 1400 mg/kg/day | NOAEL [3, 19]: ≥ 1400 mg/kg/day | LOAEL [4, 20]: > 500 mg/kg/day | NOAEL [4, 20]: ≥ 500 mg/kg/day | LEL [4, 21]: 10 mg/kg/day | NEL [4, 21]: < 10 mg/kg/day | LOAEL [4, 22]: > 500 mg/kg/day | NOAEL [4, 22]: ≥ 500 mg/kg/day | LEL [4, 23]: 10 mg/kg/day | NEL [4, 23]: < 10 mg/kg/day | NEL ([4]; group: reproductive, reproductive / reproductive performance / mating / mating): 100 mg/kg/day | LEL [4, 24]: 500 mg/kg/day | LOAEL [4, 24]: > 500 mg/kg/day | NOAEL [4, 24]: ≥ 500 mg/kg/day | LEL ([5]; systemic / clinical chemistry / [other] / [other]): 250 mg/kg/day | NEL ([5]; systemic / clinical chemistry / [other] / [other] + systemic / in life observation / body weight / body weight gain + systemic / in life …): 125 mg/kg/day | LOAEL [5, 25]: > 1000 mg/kg/day | NOAEL [5, 25]: ≥ 1000 mg/kg/day | LEL [6]: 500 mg/kg/day | LOAEL [6]: > 500 mg/kg/day | NEL [6]: < 500 mg/kg/day | NOAEL [6]: ≥ 500 mg/kg/day

CCOP(=S)(OCC)Oc1ccc([N+](=O)[O-])cc1 [Parathion]
LEL [7, 26]: 0.4 mg/kg/day | LOAEL [7, 26]: 4 mg/kg/day | NEL [7, 26]: 0.04 mg/kg/day | NOAEL [7, 26]: 0.4 mg/kg/day | LEL [7, 27]: 4 mg/kg/day | LOAEL [7, 27]: 4 mg/kg/day | NEL [7, 27]: 0.4 mg/kg/day | NOAEL [7, 27]: 0.4 mg/kg/day | NEL ([8]; systemic / in life observation / clinical signs / abnormal gait): 0.25 mg/kg/day | LOAEL [8, 28]: 2.5 mg/kg/day | NOAEL [8, 28]: 0.25 mg/kg/day | LEL ([8]; systemic / pathology microscopic / nerve / [other] + systemic / pathology microscopic / nerve / proliferation + systemic / in life …): 2.5 mg/kg/day | LEL [9]: 0.01 mg/kg/day | LOAEL [9]: 0.01 mg/kg/day | NEL [9]: < 0.01 mg/kg/day | NOAEL [9]: < 0.01 mg/kg/day | LEL [10, 29]: 0.0024 mg/kg/day | LOAEL [10, 29]: 0.0079 mg/kg/day | NEL [10, 29]: < 0.0024 mg/kg/day | NOAEL ([10]; group: cholinesterase, cholinesterase / cholinesterase / cholinesterase / plasma cholinesterase (che) + cholinesterase / cholinesterase / cholinesterase / brain (…): 0.0024 mg/kg/day | LEL [10, 30]: 0.794 mg/kg/day | LOAEL [10, 30]: > 0.794 mg/kg/day | NEL [10, 30]: 0.0079 mg/kg/day | NOAEL [10, 30]: ≥ 0.794 mg/kg/day | NEL [11, 31]: 0.4 mg/kg/day | NOAEL [11, 31]: 0.4 mg/kg/day | LEL [11, 32]: 1.6 mg/kg/day | LOAEL [11, 32]: 1.6 mg/kg/day | LEL [12, 26]: 0.42 mg/kg/day | LOAEL [12, 26]: 0.42 mg/kg/day | NEL [12, 26]: 0.1 mg/kg/day | NOAEL [12, 26]: 0.1 mg/kg/day | LOAEL [12, 33]: > 1.75 mg/kg/day | NOAEL [12, 33]: ≥ 1.75 mg/kg/day | LEL ([12]; group: systemic, systemic / pathology microscopic / eye / [other]): 0.53 mg/kg/day | NEL ([12]; group: systemic, systemic / pathology microscopic / eye / [other] + systemic / clinical chemistry / aspartate aminotransferase (ast/sgot) / aspartate …): 0.14 mg/kg/day | LEL [13]: 1.3 mg/kg/day | LOAEL [13]: > 1.9 mg/kg/day | NEL [13]: < 1.3 mg/kg/day | NOAEL [13]: ≥ 1.9 mg/kg/day

CC1(C)S[C@@H]2[C@H](NC(=O)COc3ccccc3)C(=O)N2[C@H]1C(=O)[O-].[K+] [Penicillin VK]
LEL [14, 34]: 500 mg/kg/day | NEL [14, 34]: < 500 mg/kg/day | LOAEL [14, 35]: > 1000 mg/kg/day | NOAEL [14, 35]: ≥ 1000 mg/kg/day | LEL [15]: 500 mg/kg/day | LOAEL [15]: > 1000 mg/kg/day | NEL [15]: < 500 mg/kg/day | NOAEL [15]: ≥ 1000 mg/kg/day | LEL [16]: 100 mg/kg/day | LOAEL [16]: > 3000 mg/kg/day | NEL [16]: < 100 mg/kg/day | NOAEL [16]: ≥ 3000 mg/kg/day | LOAEL [17, 36]: > 3000 mg/kg/day | NEL [17, 36]: 370 mg/kg/day | NOAEL [17, 36]: ≥ 3000 mg/kg/day | LEL ([17]; systemic / in life observation / clinical signs / defecation (diarrhea)): 750 mg/kg/day
